These results are taken from patent publication US20210268009A1, “Composition For Preventing Hair Loss Or Promoting Hair Regrowth” (LG Household & Health Care Ltd., priority 2018, published 2021).

Assay [1] relates to Versican. The assay can be described thus: Real-time PCR gene expression in dermal papilla cells: versican. To be noted: for Expression of Genes (%): Versican: non-treated group = 100; for expression of versican, result in words: summary of Table 10. Type of assay: cell-based, human. The text has this:
(§1) In general, it is known that VEGF, IGF-1, FGF, or the like, secreted in dermal papilla cells induce an anagen stage of hair. In addition, versican is known as a marker of an anagen stage of hair and DKK-1 is known as a marker of a catagen stage of hair. Therefore, effects of rhaponticin, rhein, chrysophanol and physicon-O-d-glucopyranoside upon the signals of accelerating an anagen stage and those of inducing a catagen stage in dermal papilla cells were examined according to the present disclosure. In a 6-well culture plate, dermal papilla cells were seeded to each well at 1×10^5 and treated with 10 μg/mL of each of the samples of rhaponticin, rhein, chrysophanol, physicon-O-d-glucopyranoside and combinations thereof as shown in the following Table 10. Then, real-time PCR was used to determine expression of each of VEGF, versican and DKK-1 by using Taqman® probe (Thermo Fisher, Massachusetts, USA) as shown in the following Table 9. [table]

Assay [2] deals with VEGF. In words: Real-time PCR gene expression in dermal papilla cells: VEGF. It is filed as cell-based, human. The conditions noted are these: for Expression of Genes (%): VEGF: non-treated group = 100; for expression of VEGF, result in words: summary of Table 10.
Source text: as §1

In assay [3] the test system is DKK-1. The assay can be described thus: Real-time PCR gene expression in dermal papilla cells: DKK-1. Type of assay: cell-based, human. To be noted: for Expression of Genes (%): DKK-1: non-treated group = 100; for expression of DKK-1, result in words: summary of Table 10.
Source text: as §1

Assay [4] concerns Human-derived dermal papilla cells (DPCs). The assay can be described thus: Dermal papilla cell proliferation, CCK-8 (Experimental Example 6). Type of assay: cell-based. To be noted: for Dermal Papilla Cell Proliferation Ability (%): one day, control = 100; for proliferation of dermal papilla cells, result in words: summary of Table 8. Here is the method: Human-derived dermal papilla cells (DPCs) were purchased from PromoCell GmbH. The DPCs were cultured in a DMEM medium (Hyclone Inc., Utah, USA) containing 5% of fetal bovine serum (FBS; Gibco, NY, USA), 10 units/mL of penicillin and 100 μg/mL of streptomycin at 37° C. under 5% of CO2. The cultured DPCs were pipetted to a 96-well plate at 3,000 cells/well and cultured under the condition of 0.1% of serum for 24 hours. Then, the cultured cells were treated with 10 μg/mL of each of the samples of rhaponticin, rhein, chrysophanol, physicon-8-O-glucopyranoside and combinations thereof as shown in the following Table 8 for one day and then incubated, and DMSO (vehicle) diluted to 1:1000 in serum-free DMEM was used as a control and 2 μg/mL of minoxidil was used as a positive control . After incubation, a cell counting kit (CCK) was used to evaluate proliferation of cells. The culture medium was treated with CCK-8 at a ratio of 1:10, followed by incubation for 1 hour. After 1 hour, the absorbance of each well was determined at 450 nm. All tests were repeated three times and the average of absorbance value was calculated. The results are shown by the percentage of a test group as the result of the control is taken as 100.

For assay [5] the test system is unchanged. In words: Dermal papilla cell proliferation, CCK-8 (Experimental Example 2, escin). Type of assay: cell-based. To be noted: one day; for Dermal Papilla Cell Proliferation Ability (%): control = 100. How it is done: Human-derived dermal papilla cells (DPCs) were purchased from PromoCell GmbH. DPCs were cultured under the conditions of 37° C. and 5% CO2 by using a follicle dermal papilla cell growth medium and supplement mix recommended by PromoCell GmbH. The cultured DPCs were pipetted to a 96-well plate at 3,000 cells/well and cultured for 24 hours in the presence of 0.1% of blood serum. Then, the cultured cells were treated with escin at a concentration of 0.2, 0.5, 1.2 and 5 μg/mL for one day and then incubated, and DMSO (vehicle) diluted to 1:1000 in serum-free DMEM was used as a control. After incubation, a cell counting kit (CCK) was used to evaluate proliferation of cells. The culture medium was treated with CCK-8 at a ratio of 1:10, followed by incubation for 1 hour. After 1 hour, the absorbance of each well was determined at 450 nm. All tests were repeated three times and the average of absorbance value was calculated. The results are shown by the percentage of a test group with the result of the control taken as 100.

For assay [6], the system named is β-catenin. The assay can be described thus: Expression of β-catenin in dermal papilla cells (SDS-PAGE / anti-β-catenin antibody). To be noted: escin 0.2-5 μg/mL, 1 day; GAPDH control; FIG. 2. It is filed as cell-based, human. From the text:
In dermal papilla cells in a catagen stage and a telogen stage, during which Wnt signals are inhibited, β-catenin is decomposed by GSK3-beta. However, in dermal papilla cells in an anagen stage, during which Wnt signals are amplified, activity of GSK3-beta is inhibited and β-catenin is not decomposed, resulting in an increase in expression of β-catenin. Human dermal papilla cells were pipetted to six well plates at about 500,000 cells/well, and treated with escin for 1 day at a concentration of 0.2, 0.5, 1.2 and 5 μg/mL, followed by incubation. After incubation, M-PER lysis buffer was used to cause lysis of the cells and the same amount of cell lysate was loaded on SDS-PAGE gel. The cell lysate loaded on SDS-PAGE gel was transferred to a nitrocellulose membrane and anti-β-catenin antibody was attached to the nitrocellulose membrane to detect protein. GAPDH was used as a control for correcting protein content. The amount of β-catenin increased by escin was determined.

Assay [7] relates to Wnt/β-catenin promoter activity (Wnt reporter HEK293SA cells). In words: Wnt/β-catenin promoter luciferase reporter analysis. To be noted: escin 5, 10 and 20 μg/mL, FIG. 1. Type of assay: cell-based. Here is the method:
In general, Wnt/β-catenin signals activated in dermal papilla cells are generated while a transition from a […] to an anagen stage occurs in the hair growth cycle, i.e. during a period from beginning of hair growth to an activation stage of hair growth. In addition, in a telogen stage and catagen stage, Wnt/β-catenin signals become weak or disappear to cause degradation of hair follicles and depilation. In this Experimental Example, it is determined how escin contributes to amplification of Wnt/β-catenin signals.
As a positive control which amplifies Wnt/β-catenin signals, wnt3a protein was used. In addition, dimethyl sulfoxide (DMSO) was used as a negative control. In a 96-well culture plate, approximately 3×10^4 of Wnt reporter HEK293SA cells were seeded to each well and treatment with escin was carried out at a concentration of 5 μg/mL, 10 μg/mL and 20 μg/mL. Then, a luciferase assay kit (E1960) available from Promega Corp. was used to carry out reporter analysis according to the test method provided by the company. In addition, luminometer Victor (Perkin Elmer, Waltham, Mass., USA) was used to determine Wnt/β-catenin promoter activity.

Consider `Cc1cc(O)c2c(c1)C(=O)c1cccc(O)c1C2=O` [Chrysophanol], for which the “Expression of Genes (%): Versican” value in assay [1] (10 μg/mL) is recorded as 158%. Also, the “expression of versican, result in words” value in assay [1] is “increase expression”. The “Expression of Genes (%): VEGF” value in assay [2] (10 μg/mL) was found to be 250%. In addition, the “expression of VEGF, result in words” value in assay [2] is listed as “increase expression of VEGF”. Further, the “Expression of Genes (%): DKK-1” value in assay [3] (10 μg/mL) is given as 123%. Further, the “expression of DKK-1, result in words” value in assay [3] is “reduce expression of DKK-1”. The “Dermal Papilla Cell Proliferation Ability (%)” value in assay [4] (10 μg/mL) was 152.0%. The “proliferation of dermal papilla cells, result in words” value (from here on “proliferation of dermal papilla cells”) in assay [4] is on record as “excellent effect of accelerating proliferation of dermal papilla cells”.
With `COc1ccc(/C=C/c2cc(O)cc(O[C@@H]3O[C@H](CO)[C@@H](O)[C@H](O)[C@H]3O)c2)cc1O` [Rhaponticin], in assay [1] (10 μg/mL), the “Expression of Genes (%): Versican” value amounted to 130%. Besides, in assay [1], the “expression of versican, result in words” value is on record as “increase expression”. In assay [2] (10 μg/mL), the “Expression of Genes (%): VEGF” value came out at 210%. For the same compound, the “expression of VEGF, result in words” value in assay [2] is reported as “increase expression of VEGF”. Further, the “Expression of Genes (%): DKK-1” value in assay [3] (10 μg/mL) was determined as 112%. In addition, in assay [3], the “expression of DKK-1, result in words” value was “reduce expression of DKK-1”. Besides, in assay [4] (10 μg/mL), the “Dermal Papilla Cell Proliferation Ability (%)” value is given as 162.7%. Also, the “proliferation of dermal papilla cells” value in assay [4] is recorded as “excellent effect of accelerating proliferation of dermal papilla cells”.
Regarding Escin, the “Dermal Papilla Cell Proliferation Ability (%)” value is given as 168.8% in assay [5] (0.2 μg/mL); 198.7% in assay [5] (0.5 μg/mL); 194.4% in assay [5] (1 μg/mL); 204.8% in assay [5] (2 μg/mL); 208.3% in assay [5] (5 μg/mL). The “DPC proliferation, result in words” value in assay [5] (escin 0.2-5 μg/mL) is given as “shows an effect of DPC proliferation”. Also, the “amount of β-catenin in dermal papilla cells, result in words” value in assay [6] is “significant increase in amount of β-catenin”. Besides, the “Wnt/β-catenin signal effect compared to the positive control wnt3a protein” value in assay [7] was “higher effect as compared to the positive control”. Moreover, the “amplification of Wnt/β-catenin signals as compared to the non-treated negative control” value in assay [7] (no concentration dependence, clear effect at about 20 μg/mL) is “approximately 11 times”.
Regarding `COc1cc(OC2OC(CO)C(O)C(O)C2O)c2c(c1)C(=O)c1cc(C)cc(O)c1C2=O` (stereo not drawn) [Physicon-8-O-d-glucopyranoside], the “Expression of Genes (%): Versican” value in assay [1] (10 μg/mL) is given as 175%. Besides, in assay [1], the “expression of versican, result in words” value is listed as “increase expression”. For the same compound, in assay [2] (10 μg/mL), the “Expression of Genes (%): VEGF” value was 164%. Besides, the “expression of VEGF, result in words” value in assay [2] is “increase expression of VEGF”. Also, in assay [3] (10 μg/mL), the “Expression of Genes (%): DKK-1” value was determined as 75%. Also, the “expression of DKK-1, result in words” value in assay [3] is recorded as “reduce expression of DKK-1”. Besides, the “Dermal Papilla Cell Proliferation Ability (%)” value in assay [4] (10 μg/mL) is listed as 148.3%. For the same compound, the “proliferation of dermal papilla cells” value in assay [4] is given as “excellent effect of accelerating proliferation of dermal papilla cells”.
`O=C(O)c1cc(O)c2c(c1)C(=O)c1cccc(O)c1C2=O` [Rhein]: in assay [1] (10 μg/mL), the “Expression of Genes (%): Versican” value is given as 154%. The “expression of versican, result in words” value in assay [1] is on record as “increase expression”. For the same compound, the “Expression of Genes (%): VEGF” value in assay [2] (10 μg/mL) was determined as 144%. Further, the “expression of VEGF, result in words” value in assay [2] is reported as “increase expression of VEGF”. Also, in assay [3] (10 μg/mL), the “Expression of Genes (%): DKK-1” value stood at 76%. Moreover, the “expression of DKK-1, result in words” value in assay [3] is on record as “reduce expression of DKK-1”. The “Dermal Papilla Cell Proliferation Ability (%)” value in assay [4] (10 μg/mL) came to 152.7%. The “proliferation of dermal papilla cells” value in assay [4] is “excellent effect of accelerating proliferation of dermal papilla cells”.
As to `Nc1cc(N2CCCCC2)nc(N)[n+]1[O-]` [Minoxidil, 2,4-diamino-6-piperidinopyrimidine-3-oxide, reference compound], in assay [1] (2 μg/mL), the “Expression of Genes (%): Versican” value is reported as 134%. Besides, the “Expression of Genes (%): VEGF” value in assay [2] (2 μg/mL) is 110%. In addition, the “Expression of Genes (%): DKK-1” value in assay [3] (2 μg/mL) is recorded as 128%. In assay [4] (2 μg/mL), the “Dermal Papilla Cell Proliferation Ability (%)” value came out at 187.2%.
